Converted amounts (≈) assume the structure as drawn.
Columns and labels:
[1] = tested on: sVEGFR2; test: Serum biomarker analysis, sVEGFR2; assay type: in vivo, human; settings: data not shown
Experimental: Two pre-dose, multiple post-dose and off-treatment time points were included. Serum samples were tested for concentrations of soluble vascular endothelial growth factor receptor (VEGFR)2, VEGFR3 and soluble interleukin-2 receptor α (sIL-2Rα/CD25), using the bead-based Human Soluble Cytokine Receptor Panel assay kit. The two baseline samples (days −3 and −2 prior to dosing) were averaged, and the mean was used to calculate percent change at each of the post-dosing time points.

[2] = tested on: advanced solid tumours; test: Clinical outcome by 2X-121 DRP prediction; assay type: in vivo, human
Description: Matching baseline transcriptome and growth inhibition data were available for 61 of the 74 cell lines, and were used to develop a DRP as previously described.[21],[22] Briefly, IC50 values in the 61 cell lines were correlated to gene-expression levels in the same cell lines; 172 genes with a Pearson correlation above 0.25 were retained as potential markers of sensitivity, while 242 genes with a Pearson correlation below −0.25 were retained as potential markers of resistance. The 414 genes were searched in PubMed for known associations to DNA damage response or Wnt/β-catenin pathways. The 111 pathway-associated genes are shown in Supplementary Table 2. Archival biopsies, in the form of formalin-fixed paraffin-embedded blocks and slides, were obtained from patients in the trial. Only those samples that yielded RNA of sufficient quantity and quality were evaluated for gene expression. The expression of the 414 genes in the 2X-121 DRP was analysed via a custom Affymetrix U133_Plus2 microarray according to the manufacturer’s instructions. The 2X-121 DRP was applied in a blinded manner following a prespecified analysis plan. The difference between the means of the genes that were positively correlated and those negatively correlated to response was used as a single prediction score for each patient, after normalisation to a range of 0–100.
As a first-in-human phase 1 clinical trial, no formal sample-size calculation or hypothesis testing was undertaken. Analysis of biomarker predictions was performed using a 1-sided Pearson correlation test and a 1-sided log-rank test for time-to-event data according to a prespecified analysis plan.

[3] = tested on: MDA-MB-231; test: 8-day growth inhibition; assay type: cell-based; settings: Breast, MDA-MB-231, 8-day assay
[4] = tested on: Hs578T; test: 8-day growth inhibition; assay type: cell-based; settings: Breast, 8-day assay
[5] = tested on: HCC1143; test: 8-day growth inhibition; assay type: cell-based; settings: Breast, HCC1143, 8-day assay
[6] = tested on: MDA-MB-453; test: 8-day growth inhibition; assay type: cell-based; settings: Breast, MDA-MB-453, 8-day assay
[7] = tested on: HT-1080; test: 8-day growth inhibition; assay type: cell-based; settings: Fibrosarcoma, HT-1080, 8-day assay
[8] = tested on: SF-295; test: 8-day growth inhibition; assay type: cell-based; settings: GBM, SF-295, 8-day assay
[9] = tested on: HCT-15; test: 8-day growth inhibition; assay type: cell-based; settings: Colon, HCT-15, 8-day assay
[10] = tested on: HEC-108; test: 8-day growth inhibition; assay type: cell-based; settings: Endometrial, HEC-108, 8-day assay
[11] = tested on: ECC-1; test: 8-day growth inhibition; assay type: cell-based; settings: Endometrial, ECC-1, 8-day assay
[12] = tested on: HEC-50B; test: 8-day growth inhibition; assay type: cell-based; settings: Endometrial, 8-day assay
[13] = tested on: HEC-1B; test: 8-day growth inhibition; assay type: cell-based; settings: Endometrial, 8-day assay
[14] = tested on: RL95-2; test: 8-day growth inhibition; assay type: cell-based; settings: Endometrial, RL95-2, 8-day assay
[15] = tested on: HEC-265; test: 8-day growth inhibition; assay type: cell-based; settings: Endometrial, HEC-265, 8-day assay
[16] = tested on: NCI-H1694; test: 8-day growth inhibition; assay type: cell-based; settings: SCLC, NCI-H1694, 8-day assay
[17] = tested on: NCI-H146; test: 8-day growth inhibition; assay type: cell-based; settings: SCLC, NCI-H146, 8-day assay
[18] = tested on: HL-60; test: 8-day growth inhibition; assay type: cell-based; settings: Promyelocytic leukemia, HL-60, 8-day assay
[19] = tested on: K562; test: 8-day growth inhibition; assay type: cell-based; settings: Erythroleukemia from CML patient, K562, 8-day assay
[20] = tested on: NCI-H929; test: 8-day growth inhibition; assay type: cell-based; settings: Myeloma, NCI-H929, 8-day assay
[21] = tested on: DB; test: 8-day growth inhibition; assay type: cell-based; settings: DLBCL (GC), 8-day assay
[22] = tested on: Pfeiffer; test: 8-day growth inhibition; assay type: cell-based; settings: DLBCL (GC), 8-day assay
[23] = tested on: Toledo; test: 8-day growth inhibition; assay type: cell-based; settings: DLBCL (GC), 8-day assay
[24] = tested on: JVM-13; test: 8-day growth inhibition; assay type: cell-based; settings: MCL, JVM-13, 8-day assay
[25] = tested on: NCEB-1; test: 8-day growth inhibition; assay type: cell-based; settings: MCL, NCEB-1, 8-day assay
[26] = tested on: THP-1; test: 8-day growth inhibition; assay type: cell-based; settings: AML, THP-1, 8-day assay
[27] = tested on: RPMI-8226; test: 8-day growth inhibition; assay type: cell-based; settings: Myeloma, RPMI-8226, 8-day assay
[28] = tested on: ARH-77; test: 8-day growth inhibition; assay type: cell-based; settings: Myeloma, ARH-77, 8-day assay
[29] = tested on: PARP; test: Sigmoidal inhibitory indirect-response PK/PD model of PAR formation; assay type: in vivo, human; settings: model estimate
Experimental: The PD measurement utilised in the PK/PD model was the percentage inhibition of the formation of PAR, a marker for PARP activity,[19] which was calculated as % inhibition = […], where baseline was defined as the PAR response at time 0 on day –2.
The model parameters from the PK/PD analysis were then used to simulate the expected PAR responses of additional dosing regimens of E7449. All PK/PD modelling and subsequent response simulations were performed using Phoenix WinNonlin®, version 7.

[30] = tested on: PARP1; settings: read-out: IC50, enzymatic activity of PARP1; cited from earlier work
[31] = tested on: human colon cancer SW480 cells; settings: cited from earlier work
[32] = 6 patients predicted sensitive by 2X-121 DRP (cut-off 50)
[33] = 7 patients predicted not sensitive by 2X-121 DRP

Question: What does the source list for `O=c1[nH]nc2c3c(cccc13)N=C(CN1Cc3ccccc3C1)N2` [E7449]?
Answer: Change in serum concentration of sVEGFR2 from baseline [1]: No significant changes; Median overall survival [2, 32]: > 800 days; Median time to progression [2, 32]: 296 days; Median overall survival [2, 33]: 208 days; Median time to progression [2, 33]: 155 days; IC50 [3]: 25 µM; IC50 [4]: 9.6 µM; IC50 [5]: 3.7 µM; IC50 [6]: 6.2 µM; IC50 [7]: 830 nM; IC50 [8]: 2600 nM; IC50 [9]: 2200 nM; IC50 [10]: 5.97 µM; IC50 [11]: 680 nM; IC50 [12]: 3.45 µM; IC50 [13]: 7.27 µM; IC50 [14]: 2130 nM; IC50 [15]: 2400 nM; IC50 [16]: 2470 nM; IC50 [17]: 930 nM; IC50 [18]: 10.3 µM; IC50 [19]: 4.3 µM; IC50 [20]: 5.2 µM; IC50 [21]: 1600 nM; IC50 [22]: 710 nM; IC50 [23]: 1600 nM; IC50 [24]: 7.3 µM; IC50 [25]: 5.3 µM; IC50 [26]: 5.4 µM; IC50 [27]: 9.3 µM; IC50 [28]: 3.2 µM; kout [29]: 0.52 h⁻¹; EC50 ([29]; plasma concentration, inhibition of PAR formation in PBMCs): 0.11 µg/mL (≈ 0.347 µM); kin ([29]; rate of formation of PAR): 35.5 h⁻¹; IC50 [30]: 1 nM; Active and total β-catenin [31]: concomitant reduction; Axin2 levels [31]: significant increase

Source: paper PMC7434893 (British Journal of Cancer, 2020)
